How the values were obtained:
Nav1.3 sodium channel [1] = target: T1, Nav1.3 sodium channel (Homo sapiens, UniProt Q9NY46); test: High-throughput persistent sodium current assay (VIPR, FRET dyes): Na+-dependent depolarization of HEK-Nav1.3 cells; format: cell-based; set-up: expressed in transfected cells; host or cells: HEK-293 (human embryonic kidney) cells, G418-selected (HEK-Nav1.3); conditions: 10 μM tetracaine, HEK-Nav1.3, FIG. 2
Nav1.3 sodium channel [2] = target: T1, Nav1.3 sodium channel
tactile allodynia = test: Spinal nerve ligation (Chung) model of neuropathic pain, tactile allodynia by von Frey hairs; format: in vivo; conditions: rat, 10 mg/kg i.p., 30 minutes after dosing, FIG. 6
Description: Paw withdrawal threshold (gram force) was determined using von Frey filament stimulation and the Dixon's up-down method. Allodynic response was measured at baseline (0 min) and at 15, 30, 60 and 120 min after of 10 mg/kg IP injection of Compound 1 or vehicle control. Percent reversal of allodynia compared with non-injected rats was calculated. Six rats were used at each dose. Data were analyzed by analysis of variance and Dunnett's test reversal of allodynia was considered significant if P<0.05
Compound 1 was tested in a rodent model of neuropathic pain known to be predictive of clinical activity, see, e.g., Kim & Chung, supra, (1992). Following ligation of two spinal nerves, the animals developed sensitivity to normally non-painful stimuli such as touch. The ability of Compound 1 to reverse this sensitivity, called allodynia, was tested 30 minutes after dosing by intraperitoneal administration.
The animal model used involved the surgical ligation of the L5 (and optionally the L6) spinal nerves on one side in experimental animals. […]
Tactile allodynia was measured prior to and 30 minutes after drug administration using von Frey hairs, which are a series of fine hairs with incremental differences in stiffness. […] The applied force has been calculated to range from 0.41 to 15.1 grams. […]

[3] = 3 μM, 200 msec pulse to 0 mV from -90 mV, FIG. 4

T1 sequence (Q9NY46 whole entry): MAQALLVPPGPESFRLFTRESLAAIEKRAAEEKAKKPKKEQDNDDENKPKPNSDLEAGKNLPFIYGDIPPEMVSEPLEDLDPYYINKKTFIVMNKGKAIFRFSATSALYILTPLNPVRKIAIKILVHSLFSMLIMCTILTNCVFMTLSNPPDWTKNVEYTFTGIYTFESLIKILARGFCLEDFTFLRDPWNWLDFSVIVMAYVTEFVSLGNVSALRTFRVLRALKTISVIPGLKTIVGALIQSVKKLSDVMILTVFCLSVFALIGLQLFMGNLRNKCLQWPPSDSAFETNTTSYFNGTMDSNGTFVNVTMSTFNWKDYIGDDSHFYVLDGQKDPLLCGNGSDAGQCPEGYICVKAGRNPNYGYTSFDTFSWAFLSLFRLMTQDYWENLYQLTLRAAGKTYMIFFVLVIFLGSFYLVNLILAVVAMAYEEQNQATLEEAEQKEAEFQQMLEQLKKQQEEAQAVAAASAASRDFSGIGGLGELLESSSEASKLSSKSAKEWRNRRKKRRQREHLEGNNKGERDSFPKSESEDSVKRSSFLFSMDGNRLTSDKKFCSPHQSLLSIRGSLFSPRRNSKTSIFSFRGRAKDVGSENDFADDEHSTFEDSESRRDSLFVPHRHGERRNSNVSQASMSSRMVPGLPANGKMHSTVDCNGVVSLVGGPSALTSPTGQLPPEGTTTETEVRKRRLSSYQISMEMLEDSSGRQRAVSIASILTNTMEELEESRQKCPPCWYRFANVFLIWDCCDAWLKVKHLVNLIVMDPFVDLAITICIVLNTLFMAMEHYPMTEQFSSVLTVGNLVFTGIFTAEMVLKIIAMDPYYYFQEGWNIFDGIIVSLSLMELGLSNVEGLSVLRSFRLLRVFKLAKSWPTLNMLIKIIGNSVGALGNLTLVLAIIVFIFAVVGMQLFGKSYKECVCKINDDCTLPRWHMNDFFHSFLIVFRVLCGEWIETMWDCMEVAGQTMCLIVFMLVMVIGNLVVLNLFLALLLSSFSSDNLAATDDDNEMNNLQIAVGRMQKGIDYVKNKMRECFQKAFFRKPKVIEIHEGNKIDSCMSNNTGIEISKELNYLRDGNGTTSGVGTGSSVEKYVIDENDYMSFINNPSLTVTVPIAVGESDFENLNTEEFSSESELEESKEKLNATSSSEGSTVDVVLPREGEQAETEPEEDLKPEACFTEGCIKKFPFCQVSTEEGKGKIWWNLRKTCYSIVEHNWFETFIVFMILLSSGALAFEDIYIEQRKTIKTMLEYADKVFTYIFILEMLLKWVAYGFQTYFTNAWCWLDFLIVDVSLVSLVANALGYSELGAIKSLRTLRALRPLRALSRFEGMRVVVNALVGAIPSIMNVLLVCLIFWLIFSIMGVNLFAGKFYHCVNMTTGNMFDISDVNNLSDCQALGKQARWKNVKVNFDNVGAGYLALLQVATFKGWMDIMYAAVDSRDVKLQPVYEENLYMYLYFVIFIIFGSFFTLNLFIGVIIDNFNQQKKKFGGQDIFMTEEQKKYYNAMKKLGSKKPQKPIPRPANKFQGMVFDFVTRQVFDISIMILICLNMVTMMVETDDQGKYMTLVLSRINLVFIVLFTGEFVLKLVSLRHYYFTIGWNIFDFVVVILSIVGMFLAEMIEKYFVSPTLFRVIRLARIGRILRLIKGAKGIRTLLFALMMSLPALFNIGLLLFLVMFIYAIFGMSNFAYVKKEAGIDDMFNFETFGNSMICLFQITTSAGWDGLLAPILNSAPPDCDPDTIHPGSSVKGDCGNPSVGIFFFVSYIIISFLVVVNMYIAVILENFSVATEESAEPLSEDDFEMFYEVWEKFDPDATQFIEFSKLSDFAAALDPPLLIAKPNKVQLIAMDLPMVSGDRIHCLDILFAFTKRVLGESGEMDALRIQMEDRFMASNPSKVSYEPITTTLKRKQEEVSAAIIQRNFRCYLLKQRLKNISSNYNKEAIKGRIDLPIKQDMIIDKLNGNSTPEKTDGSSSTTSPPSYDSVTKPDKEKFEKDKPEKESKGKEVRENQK

| SMILES | Inhibition of Na+-dependent change in Rf/Ri (depolarization) (Nav1.3 sodium channel [1]) | Block of persistent current (Nav1.3 sodium channel [2]; [3]) | Reduction of transient current (Nav1.3 sodium channel [2]; [3]) | Hillslope, persistent current (Ip) (Nav1.3 sodium channel [2]; Hill equation fit, FIG. 5) | Hillslope, transient Na+ current (It) (Nav1.3 sodium channel [2]; Hill equation fit, FIG. 5) | Reduction in allodynia with respect to a vehicle control (tactile allodynia) |
| --- | --- | --- | --- | --- | --- | --- |
| CCCCNc1ccc(C(=O)OCCN(C)C)cc1 [Tetracaine, tetracaine] | inhibited | – | – | – | – | – |
| O=C(NCCCCc1ccccc1)c1cccs1 [Compound 1, thiophene-2-carboxylic acid (4-phenyl-butyl)-amide] | – | 99% | 16% | 0.733 | 0.354 | 80% |
